Consider one compound from paper PMC10819771 (Pharmaceuticals, 2023).

Structures are written as SMILES.

The assay relates to telomerase. The assay is described as follows: Telomerase activity (TRAP assay) in MCF-7 cell lysates. The class given is biochemical, human. Particulars: MCF-7 cell lysate. The procedure: Telomerase activity was assessed using the TRAP assay kit (TRAPeze® RT telomerase detection kit, Chemicon, Millipore Sigma S7700, Merck KGaA, Darmstadt, Germany) according to manufacturer’s instructions with some modifications. Briefly, […] in CHAPS lysis buffer and proteins were extracted. Protein extracts and various concentrations of compounds (0 to 5 µM) were used to extend a synthetic telomeric DNA using an enzymatic reaction (30 °C during 20 min), followed by a quantification of telomeric DNA using a telomeric PCR amplification: 95 °C for 3 min, 2 cycles of 95 °C for 20 s, and 49 °C for 20 s, followed by 30 cycles 95 °C for 20 s and 60 °C for 20 s with signal acquisition) in a Stratagene Mx3005P system (Agilent, Les Ulis, France) using specific telomeric PCR quantitative primers. Each sample was measured in technical duplicate with control DNA. For each drug and each dilution, we used biological triplicate of cell lysates.

Turning to `CN(C)CCCNCc1ccc(-c2nc(-c3ccc(CNCCCN(C)C)cc3)c3cc(-c4ccccc4)ccc3n2)cc1` [Compound 12b, 2,4-bis{4-[(3-dimethylaminopropyl)aminomethyl]phenyl}-6-phenylquinazoline], the “telomerase activity compared to control” value (5 µM compound) is reported as “reduced drastically”. The “concentration from which MCF-7 telomerase activity is decreased” value (0 to 5 µM tested) worked out at 0.5 µM.
